How the values were obtained:
[1] = test system: sputum macrophages from COPD patients; experiment: Cytokine production in LPS-treated sputum macrophages from COPD patients; format: cell-based, human
Procedure: Patients with COPD inhaled a nebulised solution of 3% (w/v) hypertonic saline using an ultrasonic nebuliser (Devilbiss, Carthage, Mo.) with tidal breathing for 5 min. This procedure was repeated a maximum of three times until enough sputum was obtained. The sputum samples were homogenized and mixed vigorously using a vortex mixer in 0.02% v/v dithiothreitol (DTT) solution. The samples were re-suspended in PBS (40 mL) followed by centrifugation at 1500 rpm at 4° C. for 10 min to obtain sputum cell pellets. The pellets were washed with PBS (40 mL). The sputum cells were then re-suspended in 4 mL macrophage serum-free medium (macrophage-SFM, Life technologies, containing 20 U/mL penicillin, 0.02 mg/mL streptomycin and 5 μg/mL amphotericin B) and seeded on high bound 96-well plate, followed by incubation for 1 h at 37° C. and at 5% CO2 to allow the macrophages to attach to the bottom of the plate. The cells on the plate were washed with fresh macrophage-SFM (200 μL/well) to remove neutrophils and other contaminated cells. The adherent cells (mainly sputum macrophages) on the plate were used for further analysis. Sputum inductions were conducted in Quintiles Drug Research Unit at Guys Hospital and ethics approval and written informed consent was obtained by Quintiles.
Where appropriate, 1 μL of a solution containing either the test compound or reference article at the stated concentrations (either 0.1 μg/mL, 0.01 μg/mL, or 0.001 μg/mL) or alternatively 1 μL of DMSO as the vehicle control was added to each well (200 μL in media) and the cells were incubated for 2 h. The cells were stimulated with LPS solution (50 μL, final concentration: 1 μg/mL) and incubated for 18 h at 37° C. and 5% CO2. The supernatant was then collected and kept at −80° C. Suitable luminex kits were used to measure the selected analytes. After thawing the supernatant, the magnetic antibody beads were multiplexed and incubated in a 96-well plate with standard, background solution or the appropriate volume of sample overnight with shaking at 4° C. After washing twice with 200 μL of wash buffer provided by the kit per well using a magnetic plate washer, the beads were incubated for 1 h at RT with the biotin conjugated antibody solution provided by the kit with shaking. Streptavidin solution was added for 30 min with shaking at RT. After washing with 200 μL wash buffer per well, the beads were resuspended in sheath fluid (150 μL) and analyzed immediately. The level of each analyte in the supernatant was calculated using Xcel Fit software with a 4 or 5-parameter equation using each standard curve. The inhibitions of each cytokine production were calculated at each concentration by comparison with vehicle control.

[2] = test system: neutrophil accumulation in BALF; experiment: LPS-induced neutrophil accumulation in mice; format: in vivo, Balb/c mice; settings: 1.75 μg/mouse
Procedure: Non-fasted Balb/c mice were […] by the intra tracheal route with either vehicle, or the test substance at the indicated times (within the range 2-8 h) before stimulation of the inflammatory response by application of an LPS challenge. At T=0, mice were placed into an exposure chamber and exposed to LPS (7.0 mL, 0.5 mg/mL solution in PBS for 30 min). After a further 8 h the animals were anesthetized, their tracheas cannulated and BALF extracted by infusing and then withdrawing from their lungs 1.0 mL of PBS via the tracheal catheter. Total and differential white cell counts in the BALF samples were measured using a Neubaur haemocytometer. Cytospin smears of the BALF samples were prepared by centrifugation at 200 rpm for 5 min at RT and stained using a DiffQuik stain system (Dade Behring). Cells were counted using oil immersion microscopy. Data for neutrophil numbers in BAL are shown as mean±S.E.M. (standard error of the mean). The percentage inhibition of neutrophil accumulation was calculated for each treatment relative to vehicle treatment.

[3] = test system: alveolar macrophages and neutrophils in BALF; experiment: Cigarette smoke model: macrophages and neutrophils in BALF; format: in vivo, A/J mice; settings: 1.75 μg/mouse (35 μL, bid, i.n.)
Procedure: A/J mice (males, 5 weeks old) were exposed to cigarette smoke (4% cigarette smoke, diluted with air) for 30 min/day for 11 days using a Tobacco Smoke Inhalation Experiment System for small animals (Model SIS-CS; Sibata Scientific Technology, Tokyo, Japan). […] At 12 h after the last […], each of the animals was anesthetized, the trachea cannulated and bronchoalveolar lavage fluid (BALF) was collected. The numbers of alveolar macrophages and neutrophils were determined by FACS analysis (EPICS® ALTRA II, Beckman Coulter, Inc., Fullerton, Calif., USA) using anti-mouse MOMA2 antibody (macrophage) or anti-mouse 7/4 antibody (neutrophil). BALF was centrifuged and the supernatant was collected. The level of keratinocyte chemoattractant (KC; CXCL1) in BALF was quantitated using a Quantikine® mouse KC ELISA kit (R&D systems, Inc., Minneapolis, Minn., USA).

[4] = target: T1, Syk (Homo sapiens, UniProt P43405); experiment: Syk enzyme inhibition (Z-LYTE FRET); format: biochemical
T1 construct: purchased Life Technologies
Procedure: (§1) The enzyme inhibitory activities of compounds disclosed herein were determined by FRET using synthetic peptides labelled with both donor and acceptor fluorophores (Z-LYTE, Life Technologies, Paisley, UK).
The relevant enzyme (1000 ng/mL, 1400 ng/mL or 2000 ng/mL respectively, 2.5 μL) was incubated with the test compound (either 40 μg/mL, 12 μg/mL, 4 μg/mL, 1.2 μg/mL, 0.4 μg/mL, 0.12 μg/mL, 0.04 μg/mL, 0.012 μg/mL, 0.004 μg/mL or 0.0012 μg/mL, 2.5 μL each) for 2 h at RT. The FRET peptides (8 μM, 2.5 μL), and appropriate ATP solutions (2.5 μL, 800 μM for c-Src, and 60 μM ATP for HCK and Syk) were then added to the enzyme/compound mixtures and incubated for 1 h at RT. Development reagent (protease, 5 μL) was added for 1 h prior to detection in a fluorescence microplate reader (EnVision, Perkin Elmer).
(§2) In all cases, the site-specific protease cleaves non-phosphorylated peptide only and eliminates the FRET signal. Phosphorylation levels of each reaction were calculated using the ratio of coumarin emission (donor) over fluorescein emission (acceptor), for which low ratios indicate high phosphorylation and high ratios indicate low phosphorylation levels.

[5] = target: T2, GSK 3α enzyme isoform (Homo sapiens, UniProt P49840); experiment: GSK 3α enzyme inhibition (Z-LYTE FRET); format: biochemical
T2 construct: purchased Life Technologies
T2 sequence (P49840 whole entry, canonical isoform): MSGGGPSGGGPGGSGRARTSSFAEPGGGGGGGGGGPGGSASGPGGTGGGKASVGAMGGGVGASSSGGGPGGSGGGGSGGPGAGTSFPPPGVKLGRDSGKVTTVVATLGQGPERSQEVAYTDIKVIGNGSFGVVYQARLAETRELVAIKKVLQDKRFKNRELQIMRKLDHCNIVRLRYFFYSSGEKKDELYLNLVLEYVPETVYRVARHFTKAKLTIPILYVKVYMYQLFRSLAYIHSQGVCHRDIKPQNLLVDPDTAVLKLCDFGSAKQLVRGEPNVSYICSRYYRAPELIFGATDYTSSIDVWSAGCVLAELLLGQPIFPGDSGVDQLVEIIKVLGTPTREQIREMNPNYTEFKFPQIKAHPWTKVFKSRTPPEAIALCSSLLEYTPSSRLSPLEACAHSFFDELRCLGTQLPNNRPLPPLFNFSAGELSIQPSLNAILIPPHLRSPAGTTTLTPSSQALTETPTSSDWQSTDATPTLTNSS
Procedure: as §1
The GSK3a protein (500 ng/mL, 2.5 μL) was incubated with the test compound (2.5 μL at either 40 μg/mL, 12 μg/mL, 4 μg/mL, 1.2 μg/mL, 0.4 μg/mL, 0.12 μg/mL, 0.04 μg/mL, 0.012 μg/mL, 0.004 μg/mL or 0.0012 μg/mL) for 2 h at RT. The FRET peptide (8 μM, 2.5 μL), which is a phosphorylation target for GSK3α, and ATP (40 μM, 2.5 μL) was then added to the enzyme/compound mixture and the resulting mixture incubated for 1 h at RT. Development reagent (protease, 5 μL) was added for 1 h prior to detection in a fluorescence microplate reader (EnVision, Perkin Elmer).
as §2

[6] = test system: PBMCs (mitosis); experiment: Cell mitosis assay in PHA-treated PBMCs; format: cell-based, human
Procedure: Peripheral blood mononucleocytes (PBMCs) from healthy subjects were separated from whole blood (Quintiles, London, UK) using a density gradient (Histopaquee-1077, Sigma-Aldrich, Poole, UK). The PBMCs (3 million cells per sample) were subsequently treated with 2% PHA (Sigma-Aldrich, Poole, UK) for 48 h, followed by a 20 h exposure to varying concentrations of test compounds. At 2 h before collection, PBMCs were treated with demecolcine (0.1 μg/mL; Life Technologies, Paisley, UK,) to arrest cells in metaphase.

[7] = test system: d-U937 cells; experiment: Cell viability: MTT assay in differentiated U937 cells; format: cell-based, human; settings: 10 μg/mL
Procedure: Differentiated U937 cells were pre-incubated with each test compound (final concentration 10 μg/mL in 200 μL media indicated below) under two protocols: the first for 4 h in 5% FCS RPMI1640 media and the second in 10% FCS RPMI1640 media for 24 h. The supernatant was replaced with new media (200 μL) and MTT stock solution (10 μL, 5 mg/mL) was added to each well. After incubation for 1 h the media were removed, DMSO (200 μL) was added to each well and the plates were shaken lightly for 1 h prior to reading the absorbance at 550 nm. The percentage loss of cell viability was calculated for each well relative to vehicle (0.5% DMSO) treatment. Consequently an apparent increase in cell viability for drug treatment relative to vehicle is tabulated as a negative percentage.

[8] = test system: HRV (RV16)-induced IL-8 release in BEAS2B cells; experiment: Rhinovirus-induced IL-8 release in BEAS2B cells; format: cell-based, human
Procedure: Human rhinovirus RV16 is obtained from the American Type Culture Collection (Manassas, Va.). Viral stocks are generated by infecting MRC5 cells with HRV until 80% of the cells were cytopathic.
BEAS2B cells are infected with HRV at an MOI of 1.2 and incubated for 1 h at 33° C. with gentle shaking to promote absorption. The cells are then washed with PBS, fresh media added and the cells are incubated for a further 72 h. The supernatant is collected for assay of IL-8 concentrations using a Duoset ELISA development kit (R&D systems, Minneapolis, Minn.). Compounds are added 2 h before HRV infection and 1 h after infection when non-infected HRV is washed out.

impact on cell division (mitosis) compared with Reference Compound [6] | SMILES | inhibition at 0.1 µg/mL ([1]; Homo sapiens, Macrophage, read-out: E-max (maximum inhibition), IL-6 production in LPS-treated sputum macrophages) [%] | inhibition of LPS-induced neutrophil accumulation [2] [%] | neutrophil or macrophage accumulation into airways (cigarette smoke model) [3] | inhibitory activity against Syk (in words) [4] | inhibitory activity against GSK3a (in words) [5] | MTT Assay Cell viability at time point indicated in d-U937 Cells, 4 h ([7]; 4 h) | MTT Assay Cell viability at time point indicated in d-U937 Cells, 24 h ([7]; 24 h) | inhibition of pro-inflammatory cytokine production in sputum macrophage compared with fluticasone propionate [1] | inhibition of HRV-induced IL-8 (FIG. 1) [8]
 | CCC(=O)O[C@]1(C(=O)SCF)[C@H](C)C[C@H]2[C@@H]3C[C@H](F)C4=CC(=O)C=C[C@]4(C)[C@@]3(F)[C@@H](O)C[C@@]21C [Fluticasone propionate, fluticasone propionate, reference compound] | 42 | > 80 | did not inhibit |  |  |  |  |  | 
markedly less activity | CCc1cncc(Nc2cc(COc3ccc(NC(=O)Nc4cc(C(C)(C)C)nn4-c4ccc(C)cc4)c4ccccc34)ccn2)n1 [Example 2, 1-(3-(tert-Butyl)-1-(p-tolyl)-1H-pyrazol-5-yl)-3-(4-((2-((6-ethylpyrazin-2-yl)amino)pyridin-4-yl)methoxy)naphthalen-1-yl)urea] |  |  |  | very much weaker than the Reference Compound | very much weaker than the Reference Compound | − (−ve and +ve indicate the value is below and above, respectively, the no significant effect threshold defined as 30% inhibition at 10 μg/mL at the time point indicated) | − (−ve and +ve indicate the value is below and above, respectively, the no significant effect threshold defined as 30% inhibition at 10 μg/mL at the time point indicated) | higher efficacy | dose-dependent inhibition

Source: patent US11142515B2, “Pyrazolyl-ureas as kinase inhibitors” (RESPIVERT LIMITED, priority 2014, dated 2021)
